The values below come from patent US8367098B2, “Unique combinations of antimicrobial compositions” (The Population Council, Inc., priority 2002, dated 2013).

A short description of series [1]: Diffusion of NES through dialysis membrane (HPLC). The conditions noted are these: membrane cutoff 1000, HPLC. The series is classed as physicochemical. From the text:
We examined diffusion of NES through a dialysis membrane with a molecular weight cutoff of 1000. The molecular weight of NES is 370. […] Results are illustrated in FIG. 10. […] However, the rate of diffusion observed through the dialysis membrane cannot be related to the rate of diffusion that would be observed in the human vagina as the rate of diffusion was dependant on the surface area of the dialysis bag. Conditions in the vagina would be different.
Diffusion of NES from CARRA/NES was investigated by two different methods, membrane dialysis and Ultrafree-15 centrifugation. In the membrane dialysis experiments, the membrane cutoff is 1,000, and diffusion of NES was measured by HPLC. […] In the Ultrafree-15 centrifugation experiments, a Millipore, Ultrafree-15 centrifugal filter and tube assembly was employed, which allows the passage of molecules of a MW<500 pass through; NES MW is 370.

The subject of series [2] is HIV-1. The following applies: p24 ELISA and RT; cited from earlier work. Background: ELISA stands for enzyme-linked immunosorbent assay.
For series [3] the following is noted: in vivo, po; cited from earlier work.
The conditions of series [4]: in vivo; cited from earlier work.

Turning to `C=C1C[C@H]2[C@@H]3CCC4=CC(=O)CC[C@@H]4[C@H]3CC[C@]2(C)[C@@]1(OC(C)=O)C(C)=O` [NES, 16-methylene-17α-acetoxy-19-norpregn-4-ene-3,20-dione], the “diffusion of NES through dialysis membrane” value in series [1] is on record as “diffused from the dialysis bag at a constant rate”.
Regarding `CC(=O)[O-].CC(=O)[O-].[Cd+2]` [cadmium acetate], in series [2], the “effect on HIV-1 production” value is listed as “inhibited HIV-1 production”.
`[Cl][Hg][Cl]` [mercury chloride]: the “effect on HIV-1 production” value in series [2] is “inhibited HIV-1 production”.
On to `[Cl-].[Cl-].[Zn+2]` [zinc chloride], for which, in series [2], the “effect on HIV-1 production” value is listed as “inhibited HIV-1 production”.
Carrageenan: the “absorption from the gastrointestinal tract” value in series [3] is reported as “virtually non-existent”. Further, in series [4], the “toxicity by oral, dermal, and inhalation routes” value was “non-toxic”.
